Source: ChEMBL document CHEMBL4033641, “Design, synthesis and anticancer potential of NSC-319745 hydroxamic acid derivatives as DNMT and HDAC inhibitors” (Eur J Med Chem, 2017)

Assays:
[1] = tested on: K562; assay: Antiproliferative activity against human K562 cells after 72 hrs by MTT assay; type: functional, cell-based; settings: K562, 72 h
[2] = tested on: U-937; assay: Antiproliferative activity against human U937 cells after 72 hrs by MTT assay; type: functional, cell-based; settings: U-937, 72 h
[3] = biological target: DNA (cytosine-5)-methyltransferase 1 (Homo sapiens) (UniProt P26358); assay: Inhibition of DNMT1 (unknown origin) at 100 uM using poly(dI-dC).poly(dI-dC) as substrate preincubated for 15 mins followed by substrate/[3H]-SAM addition measured after 120 mins by liquid scintillation counting analysis
DNA (cytosine-5)-methyltransferase 1 (Homo sapiens), sequence (P26358 whole entry): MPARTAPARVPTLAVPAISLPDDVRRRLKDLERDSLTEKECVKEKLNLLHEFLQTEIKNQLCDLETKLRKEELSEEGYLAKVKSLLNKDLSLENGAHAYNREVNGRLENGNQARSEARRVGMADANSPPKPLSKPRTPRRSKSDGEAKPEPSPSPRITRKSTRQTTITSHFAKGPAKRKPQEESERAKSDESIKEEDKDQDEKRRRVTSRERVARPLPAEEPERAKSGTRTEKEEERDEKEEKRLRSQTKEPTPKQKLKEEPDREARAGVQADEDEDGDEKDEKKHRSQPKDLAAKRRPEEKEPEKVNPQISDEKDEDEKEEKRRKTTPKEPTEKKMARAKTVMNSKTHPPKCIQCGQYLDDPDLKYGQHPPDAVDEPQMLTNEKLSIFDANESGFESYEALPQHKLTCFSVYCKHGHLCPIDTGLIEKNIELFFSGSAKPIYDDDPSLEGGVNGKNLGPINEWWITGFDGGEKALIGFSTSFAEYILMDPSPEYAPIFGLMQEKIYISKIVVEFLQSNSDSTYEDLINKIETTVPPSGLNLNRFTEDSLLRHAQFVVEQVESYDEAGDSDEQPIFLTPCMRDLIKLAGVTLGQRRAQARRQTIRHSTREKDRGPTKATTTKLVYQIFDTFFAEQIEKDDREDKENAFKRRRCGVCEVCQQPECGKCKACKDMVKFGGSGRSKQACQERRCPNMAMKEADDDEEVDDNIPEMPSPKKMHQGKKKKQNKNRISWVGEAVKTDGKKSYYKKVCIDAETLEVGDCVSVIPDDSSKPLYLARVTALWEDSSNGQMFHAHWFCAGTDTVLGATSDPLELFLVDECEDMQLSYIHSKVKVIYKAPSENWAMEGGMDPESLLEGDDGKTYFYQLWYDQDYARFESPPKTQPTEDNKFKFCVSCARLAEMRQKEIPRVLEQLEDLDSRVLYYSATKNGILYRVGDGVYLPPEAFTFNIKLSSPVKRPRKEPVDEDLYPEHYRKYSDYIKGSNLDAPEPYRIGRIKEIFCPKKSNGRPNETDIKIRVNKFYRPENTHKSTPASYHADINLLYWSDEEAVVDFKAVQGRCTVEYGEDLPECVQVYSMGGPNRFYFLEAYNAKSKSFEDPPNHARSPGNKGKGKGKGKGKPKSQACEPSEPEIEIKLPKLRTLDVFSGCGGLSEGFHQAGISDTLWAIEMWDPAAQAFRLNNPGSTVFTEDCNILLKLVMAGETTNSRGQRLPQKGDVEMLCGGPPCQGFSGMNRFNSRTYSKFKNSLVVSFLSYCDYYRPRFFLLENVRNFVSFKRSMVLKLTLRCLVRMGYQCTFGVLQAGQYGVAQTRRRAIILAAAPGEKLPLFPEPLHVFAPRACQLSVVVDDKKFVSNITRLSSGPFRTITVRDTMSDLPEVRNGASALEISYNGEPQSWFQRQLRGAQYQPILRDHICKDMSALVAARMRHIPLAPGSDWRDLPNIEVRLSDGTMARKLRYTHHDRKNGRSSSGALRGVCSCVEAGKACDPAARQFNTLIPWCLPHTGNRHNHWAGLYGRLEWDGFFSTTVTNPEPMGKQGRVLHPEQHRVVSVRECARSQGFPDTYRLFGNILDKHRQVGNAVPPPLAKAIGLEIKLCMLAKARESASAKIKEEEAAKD

[4] = tested on: Salmonella typhimurium; assay: Genotoxicity in Salmonella typhimurium TA98 at 50 times IC50 by Ames test; type: toxicity; settings: salmonella enterica subsp. enterica serovar typhimurium
[5] = tested on: Salmonella typhimurium; assay: Genotoxicity in Salmonella typhimurium TA102 at 50 times IC50 by Ames test; type: toxicity; settings: salmonella enterica subsp. enterica serovar typhimurium
[6] = tested on: Salmonella typhimurium; assay: Genotoxicity in Salmonella typhimurium TA97 at 50 times IC50 by Ames test; type: toxicity; settings: salmonella enterica subsp. enterica serovar typhimurium
[7] = biological target: Histone deacetylase 1 (Homo sapiens, UniProt Q13547); assay: Inhibition of HDAC1 (unknown origin) preincubated for 15 mins followed by substrate addition measured after 60 mins by fluorescence assay
Histone deacetylase 1, sequence (Q13547 whole entry): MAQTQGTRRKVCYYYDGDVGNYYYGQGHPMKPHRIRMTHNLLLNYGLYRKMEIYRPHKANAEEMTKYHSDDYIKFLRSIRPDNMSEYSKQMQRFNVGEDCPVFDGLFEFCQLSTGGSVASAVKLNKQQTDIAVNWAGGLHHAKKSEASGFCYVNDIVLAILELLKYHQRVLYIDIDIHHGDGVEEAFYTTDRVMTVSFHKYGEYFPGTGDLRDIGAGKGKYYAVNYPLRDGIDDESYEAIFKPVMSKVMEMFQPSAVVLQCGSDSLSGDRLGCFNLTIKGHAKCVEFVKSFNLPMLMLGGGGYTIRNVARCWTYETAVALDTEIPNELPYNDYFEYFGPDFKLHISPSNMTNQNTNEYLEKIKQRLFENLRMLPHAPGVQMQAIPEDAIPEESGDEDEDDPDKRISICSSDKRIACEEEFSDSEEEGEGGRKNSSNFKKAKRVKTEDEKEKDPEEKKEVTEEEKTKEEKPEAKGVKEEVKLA

[8] = tested on: Salmonella typhimurium; assay: Genotoxicity in Salmonella typhimurium TA1535 at 50 times IC50 by Ames test; type: toxicity; settings: salmonella enterica subsp. enterica serovar typhimurium
[9] = biological target: DNMT3B-DNMT3L complex (Homo sapiens) (UniProt Q9UBC3+Q9UJW3); assay: Inhibition of DNMT3B/3L (unknown origin) at 100 uM using biotinylated DNA oligonucleotides as substrate preincubated for 15 mins followed by substrate/[3H]-SAM addition measured after 4 hrs by liquid scintillation counting analysis; type: protein-complex assay
DNMT3B-DNMT3L complex (Homo sapiens), sequence (Q9UJW3 whole entry, looked up, other chains not shown): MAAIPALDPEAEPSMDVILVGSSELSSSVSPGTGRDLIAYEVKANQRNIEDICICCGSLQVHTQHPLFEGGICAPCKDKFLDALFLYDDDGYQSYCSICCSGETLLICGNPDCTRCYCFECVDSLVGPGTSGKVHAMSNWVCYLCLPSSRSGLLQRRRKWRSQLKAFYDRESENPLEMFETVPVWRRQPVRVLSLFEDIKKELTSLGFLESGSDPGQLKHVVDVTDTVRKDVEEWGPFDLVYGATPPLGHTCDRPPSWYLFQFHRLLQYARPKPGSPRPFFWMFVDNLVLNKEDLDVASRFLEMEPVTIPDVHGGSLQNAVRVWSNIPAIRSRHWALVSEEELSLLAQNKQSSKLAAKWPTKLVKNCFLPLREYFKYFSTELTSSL

[10] = biological target: DNMT3A2/3L complex (Homo sapiens) (UniProt Q9Y6K1+Q9UJW3); assay: Inhibition of DNMT3A/3L (unknown origin) at 100 uM using biotinylated DNA oligonucleotides as substrate preincubated for 15 mins followed by substrate/[3H]-SAM addition measured after 4 hrs by liquid scintillation counting analysis; type: protein-complex assay
DNMT3A2/3L complex (Homo sapiens), sequence (Q9UJW3 whole entry, looked up): as the sequence (Q9UJW3 whole entry, looked up, other chains not shown) above
DNMT3A2/3L complex (Homo sapiens), sequence (Q9Y6K1 whole entry, looked up): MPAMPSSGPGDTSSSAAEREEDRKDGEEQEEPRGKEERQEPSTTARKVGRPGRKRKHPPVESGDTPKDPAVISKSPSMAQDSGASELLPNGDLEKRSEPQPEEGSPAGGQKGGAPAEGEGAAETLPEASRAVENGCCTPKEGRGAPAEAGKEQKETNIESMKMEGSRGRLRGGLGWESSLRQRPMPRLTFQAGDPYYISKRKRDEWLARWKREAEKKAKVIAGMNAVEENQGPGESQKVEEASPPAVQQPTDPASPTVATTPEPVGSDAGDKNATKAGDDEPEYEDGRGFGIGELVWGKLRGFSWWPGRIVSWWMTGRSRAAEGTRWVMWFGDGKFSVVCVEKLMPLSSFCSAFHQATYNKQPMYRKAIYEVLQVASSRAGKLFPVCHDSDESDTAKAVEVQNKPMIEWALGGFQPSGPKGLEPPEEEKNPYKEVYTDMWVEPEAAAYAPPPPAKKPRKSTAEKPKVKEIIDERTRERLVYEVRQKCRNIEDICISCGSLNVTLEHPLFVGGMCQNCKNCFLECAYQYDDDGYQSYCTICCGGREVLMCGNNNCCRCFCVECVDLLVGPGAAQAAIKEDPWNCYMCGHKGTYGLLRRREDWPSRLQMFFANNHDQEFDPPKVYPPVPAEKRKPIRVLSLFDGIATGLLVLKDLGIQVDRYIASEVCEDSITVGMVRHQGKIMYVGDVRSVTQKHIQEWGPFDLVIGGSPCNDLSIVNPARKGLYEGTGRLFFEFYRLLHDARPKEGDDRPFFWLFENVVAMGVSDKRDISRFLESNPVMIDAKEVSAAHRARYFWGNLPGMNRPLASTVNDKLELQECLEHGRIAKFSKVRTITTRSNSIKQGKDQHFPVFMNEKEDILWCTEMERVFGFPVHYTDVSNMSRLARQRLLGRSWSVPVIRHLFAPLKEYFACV

[11] = biological target: T1, Protein deacetylase HDAC6 (Homo sapiens, UniProt Q9UBN7); assay: Inhibition of HDAC6 (unknown origin) preincubated for 15 mins followed by substrate addition measured after 60 mins by fluorescence assay
T1 sequence (Q9UBN7 whole entry): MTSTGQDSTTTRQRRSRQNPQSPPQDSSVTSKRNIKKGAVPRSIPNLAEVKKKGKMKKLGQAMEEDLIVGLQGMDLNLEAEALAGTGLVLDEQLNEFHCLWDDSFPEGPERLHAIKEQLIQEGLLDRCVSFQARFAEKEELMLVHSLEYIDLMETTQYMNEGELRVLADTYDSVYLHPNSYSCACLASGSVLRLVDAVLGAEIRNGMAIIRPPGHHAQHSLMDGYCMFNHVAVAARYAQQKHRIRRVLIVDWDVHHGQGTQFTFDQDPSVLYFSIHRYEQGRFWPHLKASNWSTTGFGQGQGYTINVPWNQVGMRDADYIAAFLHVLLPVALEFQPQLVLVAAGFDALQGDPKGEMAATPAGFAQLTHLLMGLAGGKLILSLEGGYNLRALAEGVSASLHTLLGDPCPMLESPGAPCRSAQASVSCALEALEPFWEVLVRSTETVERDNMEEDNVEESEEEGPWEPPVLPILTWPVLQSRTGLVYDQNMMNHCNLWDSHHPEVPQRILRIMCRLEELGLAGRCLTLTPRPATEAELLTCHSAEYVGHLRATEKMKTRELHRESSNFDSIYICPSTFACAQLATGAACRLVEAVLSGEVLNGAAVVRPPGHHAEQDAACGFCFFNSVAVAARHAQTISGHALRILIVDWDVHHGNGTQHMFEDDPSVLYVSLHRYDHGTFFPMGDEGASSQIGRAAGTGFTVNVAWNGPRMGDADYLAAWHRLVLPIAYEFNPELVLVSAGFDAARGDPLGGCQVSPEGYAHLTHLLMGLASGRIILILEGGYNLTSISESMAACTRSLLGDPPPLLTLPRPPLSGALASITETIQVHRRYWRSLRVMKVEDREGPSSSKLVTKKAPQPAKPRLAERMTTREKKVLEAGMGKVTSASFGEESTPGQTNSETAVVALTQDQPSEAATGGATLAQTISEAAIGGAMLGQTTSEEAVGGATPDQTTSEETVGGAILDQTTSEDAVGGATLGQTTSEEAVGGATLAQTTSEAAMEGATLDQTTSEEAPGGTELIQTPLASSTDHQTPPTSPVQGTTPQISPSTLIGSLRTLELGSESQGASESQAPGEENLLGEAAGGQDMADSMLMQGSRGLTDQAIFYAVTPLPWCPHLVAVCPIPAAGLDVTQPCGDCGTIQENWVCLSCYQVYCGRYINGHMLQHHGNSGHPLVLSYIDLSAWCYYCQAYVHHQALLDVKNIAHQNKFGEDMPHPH

[12] = tested on: U-937; assay: Induction of apoptosis in human U937 cells assessed as early apoptotic cells at 1 uM after 48 hrs by Annexin V-FITC/PI staining based flow cytometry (reference value: 0.140%); type: functional
[13] = tested on: HeLa; assay: Antiproliferative activity against human HeLa cells after 72 hrs by MTT assay; type: functional, cell-based
[14] = tested on: U-937; assay: Induction of apoptosis in human U937 cells assessed as necrotic cells at 2.5 uM after 48 hrs by Annexin V-FITC/PI staining based flow cytometry (reference value: 0%); type: functional
[15] = tested on: HepG2; assay: Antiproliferative activity against human HepG2 cells after 72 hrs by MTT assay; type: functional, cell-based; settings: HepG2, 72 h
[16] = tested on: U-937; assay: Induction of apoptosis in human U937 cells assessed as late apoptotic cells at 2.5 uM after 48 hrs by Annexin V-FITC/PI staining based flow cytometry (reference value: 0.279%); type: functional
[17] = tested on: A549; assay: Antiproliferative activity against human A549 cells after 72 hrs by MTT assay; type: functional, cell-based; settings: A549, 72 h
[18] = tested on: U-937; assay: Induction of apoptosis in human U937 cells assessed as necrotic cells at 0.5 uM after 48 hrs by Annexin V-FITC/PI staining based flow cytometry (reference value: 0%); type: functional
[19] = tested on: U-937; assay: Induction of apoptosis in human U937 cells assessed as viable cells at 1 uM after 48 hrs by Annexin V-FITC/PI staining based flow cytometry (reference value: 99.6%); type: functional; settings: U-937, 48 h, read-out: Activity
[20] = tested on: HCT-116; assay: Antiproliferative activity against human HCT116 cells after 72 hrs by MTT assay; type: functional, cell-based; settings: HCT-116, 72 h
[21] = tested on: U-937; assay: Induction of apoptosis in human U937 cells assessed as early apoptotic cells at 2.5 uM after 48 hrs by Annexin V-FITC/PI staining based flow cytometry (reference value: 0.140%); type: functional
[22] = tested on: U-937; assay: Induction of apoptosis in human U937 cells assessed as late apoptotic cells at 0.5 uM after 48 hrs by Annexin V-FITC/PI staining based flow cytometry (reference value: 0.279%); type: functional
[23] = tested on: U-937; assay: Induction of apoptosis in human U937 cells assessed as late apoptotic cells at 1 uM after 48 hrs by Annexin V-FITC/PI staining based flow cytometry (reference value: 0.279%); type: functional
[24] = tested on: U-937; assay: Induction of apoptosis in human U937 cells assessed as necrotic cells at 1 uM after 48 hrs by Annexin V-FITC/PI staining based flow cytometry (reference value: 0%); type: functional
[25] = tested on: U-937; assay: Induction of apoptosis in human U937 cells assessed as viable cells at 2.5 uM after 48 hrs by Annexin V-FITC/PI staining based flow cytometry (reference value: 99.6%); type: functional; settings: U-937, 48 h, read-out: Activity
[26] = tested on: U-937; assay: Induction of apoptosis in human U937 cells assessed as viable cells at 0.5 uM after 48 hrs by Annexin V-FITC/PI staining based flow cytometry (reference value: 99.6%); type: functional; settings: U-937, 48 h, read-out: Activity
[27] = tested on: U-937; assay: Induction of apoptosis in human U937 cells assessed as early apoptotic cells at 0.5 uM after 48 hrs by Annexin V-FITC/PI staining based flow cytometry (reference value: 0.140%); type: functional
[28] = tested on: U-937; assay: Growth inhibition of human U937 cells at 50 uM after 72 hrs by MTT assay; type: functional; settings: U-937, 72 h, read-out: GI
[29] = tested on: K562; assay: Growth inhibition of human K562 cells at 50 uM after 72 hrs by MTT assay; type: functional; settings: K562, 72 h, read-out: GI

Row | IC50 [1] | IC50 [2] | inhibition [3] | IC50 [7] | inhibition [9] | inhibition [10] | IC50 [11] | SMILES | Activity [4] | Activity [5] | Activity [6] | Activity [8] | also measured
1 | 1.16 µM | 1.56 µM | – | – | – | – | – | Cc1cc(Nc2ccc(NC(=O)c3ccc(Nc4ccnc5ccccc45)cc3)cc2)nc(N)n1 | – | – | – | – | –
2 | 6.23 µM | 3.95 µM | 23.8 to 24% | 0.0723 µM | 8.26% | 4.64 to 5% | 0.0414 µM | COc1ccc(Cl)cc1C(=O)NCCc1ccc(CCC(=O)NO)cc1 | Non-Toxic | Toxic | Non-Toxic | Non-Toxic | –
3 | 1.78 µM | 2.97 µM | 47.9 to 48% | 0.0113 µM | 28 to 28.1% | -0.26% | 0.0119 µM | O=C(/C=C/c1ccc(CCNC(=O)c2ccc3c(c2)OCCO3)cc1)NO | Non-Toxic | Non-Toxic | Non-Toxic | Non-Toxic | –
4 | 17.9 µM | 17.9 µM | 28.1% | 0.0143 µM | 7.23% | 21% | 0.00835 µM | O=C(/C=C/c1ccc(CCNC(=O)c2c[nH]c3ncccc23)cc1)NO | – | – | – | – | –
5 | 2.75 µM | 0.19 µM | 39.8 to 40% | 0.0192 µM | 10.6% | 3.98% | 0.012 µM | COc1ccc(Cl)cc1C(=O)NCCc1ccc(/C=C/C(=O)NO)cc1 | Non-Toxic | Non-Toxic | Non-Toxic | Non-Toxic | Activity [12]: 10.1%; IC50 [13]: 10.6 µM; Activity [14]: 0.02%; IC50 [15]: 5.43 µM; Activity [16]: 57.8%; IC50 [17]: 12.5 µM; Activity [18]: 0.02%; viability at 1 µM [19]: 52.8%; IC50 [20]: 5.39 µM; Activity [21]: 41.8%; Activity [22]: 9.11%; Activity [23]: 36.4%; Activity [24]: 0.942%; viability at 2.5 µM [25]: 0.365%; viability at 0.5 µM [26]: 84%; Activity [27]: 6.9%
6 | 3.16 µM | 1.26 µM | 22.9% | 0.004 µM | 50 to 50.1% | 19.1% | 0.00528 µM | O=C(/C=C/c1ccc(CCNC(=O)c2ccc3ncccc3c2)cc1)NO | Toxic | Non-Toxic | Non-Toxic | Non-Toxic | –
7 | 7.06 µM | 4.59 µM | 44 to 44.2% | 0.0257 µM | 1.9% | 0.9% | 0.0359 µM | O=C(/C=C/c1ccc(CCNC(=O)c2cncc(F)c2)cc1)NO | Non-Toxic | Non-Toxic | Non-Toxic | Non-Toxic | –
8 | 5.18 µM | 10.7 µM | 27.9% | 0.0081 µM | 15.8% | 11.2% | 0.0107 µM | COc1cc(C(=O)NCCc2ccc(/C=C/C(=O)NO)cc2)ccc1O | – | – | – | – | –
9 | 3.65 µM | 1.07 µM | 36 to 36.4% | 0.0346 µM | 3.09% | 1.97% | 0.0399 µM | COc1ccc(Cl)cc1C(=O)NCCc1cccc(/C=C/C(=O)NO)c1 | Non-Toxic | Non-Toxic | Non-Toxic | Non-Toxic | –
10 | 31.7 µM | – | 47 to 47.4% | 0.0078 µM | 30.8% | 41 to 41.2% | 0.00468 µM | O=C(/C=C/c1ccc(CCNC(=O)c2ccc3[nH]cnc3c2)cc1)NO | – | – | – | – | inhibition of growth at 50 µM [28]: 45%
11 | – | – | 34 to 34.1% | – | 6.11% | 42% | – | COc1ccc(Cl)cc1C(=O)NCCc1ccc(CCC(=O)O)cc1 | – | – | – | – | inhibition of growth at 50 µM [29]: 20%; inhibition of growth at 50 µM [28]: 15%
12 | 1.12 µM | 0.52 µM | 18.4% | 0.00718 µM | 9.89% | -1.03% | 0.0071 µM | O=C(/C=C/c1ccc(CCNC(=O)c2ccc3c(c2)OCO3)cc1)NO | Non-Toxic | Non-Toxic | Non-Toxic | Toxic | –
